Results on eleven molecules are retold here after patent publication US20250313900A1, “COMPOSITIONS AND THERAPEUTIC AGENTS FOR MODULATING INFLAMMATORY RESPONSES ON BOTH TUMOR AND IMMUNE CELLS” (THE METHODIST HOSPITAL, priority 2022, published 2025).

Read-outs that look alike come from different tables or passages of the source.

The test system of one test is vinculin. Put plainly: Western blots of vinculin expression, 4T1 tumor model. In kind it is cell-based. The settings on record: CMTM4 knockout, 1 mm, 0, 3, 6 and 24 hours. How it is done:
1 mm of C10H14O3 (4-Ethoxy-3-methoxybenzyl alcohol)(28A), C9H16N2O6 (Tetrahydrouridine)(28B), or C10H14O3 (5-tert-butyl-2-methyl-3-furoic acid)(28C) was administered to control mice or CMTM4 knockouts and expression measured after 0, 3, 6, and 24 hours.

The subject of the next test is glycolysis. The test can be described thus: Test glycolysis (compound screening). In kind it is cell-based. An excerpt:
(§1) The initial screening was followed by the following assessments: 1) MHC 11 assay by high-throughput flow cytometry. 2) IL-6 production. 3) NF-kB promoter activity using CMTM4-expressing NF-kB/secreted embryonic alkaline phosphatase (SEAP) reporter stable cell lines using both LLC and 4T1 cells. 4) Inhibition of EGF-mediated G-CSF secretion from tumor cells. 5) Test glycolysis (FIG. 13).

The next test concerns IL-6. Put plainly: IL-6 production (compound screening). In kind it is cell-based.
From the text: as §1

Test [1] concerns CMTM4. Put plainly: Western blot of CMTM4 protein in HCC827 CT cells. In kind it is cell-based, human. The settings on record: 1 μM. Background: In western blotting, separated proteins are transferred to a membrane and probed.
In test [2] the target is T1, CMTM4 (Mus musculus, UniProt Q8CJ61).
T1 construct: endogenous in cells; LLC and 4T1 are the only lines named in the screen
The test can be described thus: CMTM4 level (compound screening). In kind it is cell-based. Here is the method:
(§2) Protein samples from cells were separated on sodium dodecyl sulfate (SDS)-polyacrylamide gels and transferred to PVDF membranes. The membranes were blocked in 4% skim milk solution, incubated with the appropriate antibody, and subsequently incubated with a secondary antibody conjugated with horseradish peroxidase. The antibodies for p-NF-κBp65, NF-κBp65. EGFR, PTEN, Akt, p-Akt, mTOR, p-mTOR, S6, p-S6, Rab4, Rab5a, Rab11, Tubulin, actin, vinculin, and CMTM4 were purchased from Cell Signaling Technology, Inc. (Beverly, MA) and the antibody for Rab21 was purchased from Santa Cruz Biotechnology. The immunoreactive bands were visualized using the ECL system (Thermo Scientific). Control and CMTM4 KD cell lysates were analyzed using the proteome profiler mouse phospho-receptor tyrosine kinase array kit (R&D Systems) following the manufacturer's instructions. For immunoprecipitation, Dynabeads His-Tag isolation and pulldown kit (Life Technologies) was used. The pull-down samples were subjected to immunoblot assays.

The next test relates to p-Akt/p-mTOR. Put plainly: p-Akt/p-mTOR (compound screening). In kind it is cell-based. How it is done:
as §2

Test [3] relates to MHC II. The test can be described thus: MHC II assay by high-throughput flow cytometry (compound screening). In kind it is cell-based.
From the text: as §1
Background: In flow cytometry, cells or beads pass a laser one at a time.

Test [4] deals with NF-kB promoter activity in 4T1 cells. The test can be described thus: NF-kB promoter activity, CMTM4-expressing NF-kB/SEAP reporter stable 4T1 cells. In kind it is cell-based, murine.
From the text: as §1

Test [5] concerns NF-kB promoter activity in LLC cells. Put plainly: NF-kB promoter activity, CMTM4-expressing NF-kB/SEAP reporter stable LLC cells. In kind it is cell-based, murine.
From the text: as §1

The next test relates to G-CSF. The test can be described thus: Inhibition of EGF-mediated G-CSF secretion from tumor cells. In kind it is cell-based. How it is done: as §1
Secretion of G-CSF was determined using ELISA kits according to the manufacturer's instructions (Life Technologies).

Test [6] deals with MHC II. The settings on record: IFNγ stimulation.
The subject of another test is EGFR. The test can be described thus: EGFR levels in LLC CMTM4 KD cells after lipid raft depletion. In kind it is cell-based, murine. How it is done: Flotillin-1 was used as a marker of lipid raft and vinculin was used as a maker of the non-raft fraction. […] FIGS. 8D and 8E show LLC CMTM4 KD cells were treated with MβCD and real-time PCR (8D) and western blot (8E) were performed to determine EGFR levels. *p<0.05. FIG. 8F show 293T cells were transfected with CMTM4 WT-mcherry (upper) or CMTM4 MT-mcherry (lower) with EGFR-EGFP and then, cells were treated with EGF for 1 hour. Representative confocal images are shown. FIG. 8G show RNAseq data showing Rab expression between control and CMTM4 KD LLC cells. FIGS. 8H and 8I show Rab expression in control and CMTM4 KD LLC cells were determined by qRT-PCR (H) and western blot (8I). FIGS. 8J, 8K, and 8L show 293T cells were transfected with CMTM4-EGFP and Rab4 (mCherry), Rab5 (mCherry), or Rab11 (mCherry), and then, cells were treated with EGF for 1 hour. Representative confocal images are shown. Pearson correlation coefficient (PCC) was measured from 20 individual cells. FIGS. 8M and 8N show EGFR-EGFR and Lamp-1 RFP were transfected to LLC control and CMTM4 KD cells. Confocal imaging was taken before (8M) and after (8N) treatment with EGF. Pearson correlation coefficient (PCC) was measured from 20 individual cells. *p<0.05, **p<0.01, ***P<0.001, ****P<0.0001. Scale bar: 3 μm. […]

Test [7] deals with T2, Tumor necrosis factor receptor-associated factor-6 (TRAF6) (in HCC827-CT cells) (human, UniProt Q9Y4K3 1-522).
T2 sequence (looked up): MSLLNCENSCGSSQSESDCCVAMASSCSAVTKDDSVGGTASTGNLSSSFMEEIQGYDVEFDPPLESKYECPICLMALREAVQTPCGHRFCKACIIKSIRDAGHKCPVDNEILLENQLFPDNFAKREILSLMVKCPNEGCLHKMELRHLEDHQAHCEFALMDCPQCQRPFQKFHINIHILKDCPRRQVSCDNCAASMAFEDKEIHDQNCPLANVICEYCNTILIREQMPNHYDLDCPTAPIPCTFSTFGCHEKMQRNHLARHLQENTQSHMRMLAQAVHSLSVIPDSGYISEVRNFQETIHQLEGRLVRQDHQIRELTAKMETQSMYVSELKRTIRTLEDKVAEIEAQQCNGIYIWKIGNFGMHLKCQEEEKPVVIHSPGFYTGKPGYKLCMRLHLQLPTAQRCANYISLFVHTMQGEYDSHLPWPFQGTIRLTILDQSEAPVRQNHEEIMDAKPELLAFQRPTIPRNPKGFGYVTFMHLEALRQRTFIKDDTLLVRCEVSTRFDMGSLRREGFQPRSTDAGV
The test can be described thus: co-immunoprecipitation and western blot, HCC827-CT cells.

T1 sequence (Q8CJ61 whole entry): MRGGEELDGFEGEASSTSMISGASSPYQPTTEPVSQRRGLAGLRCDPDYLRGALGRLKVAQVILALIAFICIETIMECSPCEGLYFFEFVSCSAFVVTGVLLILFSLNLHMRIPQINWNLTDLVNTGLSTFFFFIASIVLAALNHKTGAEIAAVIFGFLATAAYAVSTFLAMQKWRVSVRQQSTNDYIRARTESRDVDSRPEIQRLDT

As to `CCOc1ccc(CO)cc1OC` [4-Ethoxy-3-methoxybenzyl alcohol], the vinculin expression result in the test on vinculin is recorded as “significantly increased”.

Regarding `Cc1oc(C(C)(C)C)cc1C(=O)O` [5-tert-butyl-2-methyl-3-furoic acid], the vinculin expression result in the test with vinculin is recorded as “significantly increased”.

For `O=C1NC(O)CCN1[C@@H]1O[C@H](CO)[C@@H](O)[C@H]1O` (stereo partly drawn) [C9H16N2O6, Tetrahydrouridine, Tetrahydrouridine], the vinculin expression result with vinculin is given as “significantly increased”. Also, the Glycolysis result in the test with glycolysis is given as “Inhibit”. Moreover, the “IL-6 (%)” value with IL-6 is −0.1232%. For the same molecule, in the test with CMTM4 [1], the CMTM4 protein expression result is recorded as “decreased”. Moreover, at CMTM4 [2], the CMTM4 result is reported as “No difference”. Moreover, the p-Akt/p-mTOR result with p-Akt/p-mTOR is “Decrease”.

As for `OC[C@H]1O[C@@H](n2cnc3c(O)ncnc32)[C@H](O)[C@@H]1O` [C10H12N4O5, Inosine, Inosine], the Glycolysis entry in the test with glycolysis was “Inhibit”. In addition, in the test on IL-6, the “IL-6 (%)” value was −9.437%. The CMTM4 protein expression result in the test on CMTM4 [1] is listed as “decreased”. Further, the CMTM4 result at CMTM4 [2] was “No difference”.

On to `C[C@@H]1C[C@@H]2CCCC(O)=C2C(=O)O1` [Compound C10H14O3, Ramulosin], for which, in the test on glycolysis, the Glycolysis entry is “Inhibit”. The “MHC II (%)” value in the test on MHC II [3] is reported as 340.5%. Further, the “NF-kB (%)-4T1” value in test [4] (4T1 reporter cells) worked out at 42.04%. The “IL-6 (%)” value with IL-6 is −0.1232%. In addition, the CMTM4 entry at CMTM4 [2] is on record as “No difference”. Also, the “NF-kB (%)-LLC” value in test [5] (LLC reporter cells) was found to be 34.35%. For the same molecule, the p-Akt/p-mTOR result in the test with p-Akt/p-mTOR is “Decrease”. The “G-CSF (%)” value in the test with G-CSF (EGF-mediated secretion) turned out to be 3.85%.

With `Cc1c2ccncc2c(C)c2c1[nH]c1ccccc12` [Ellipticine], the Glycolysis entry in the test on glycolysis is listed as “Inhibit”. Further, the “IL-6 (%)” value in the test on IL-6 is −15.7288%. In addition, in the test on CMTM4 [1], the CMTM4 protein expression result was “decreased”. In addition, on CMTM4 [2], the CMTM4 result is listed as “No difference”. For the same molecule, in the test with p-Akt/p-mTOR, the p-Akt/p-mTOR entry is reported as “Decrease”.

Regarding `COc1ccc2c3c([nH]c2c1)[C@H](C=C(C)C)N1C(=O)[C@@H]2CCCN2C(=O)[C@@H]1C3` [Fumitremorgin C], in the test with glycolysis, the Glycolysis result is given as “Inhibit”. In addition, in the test with MHC II [3], the “MHC II (%)” value was found to be 5071%. The “NF-kB (%)-4T1” value in test [4] is 49.73%. Besides, the “IL-6 (%)” value in the test with IL-6 was determined as 10.85%. In addition, the CMTM4 result at CMTM4 [2] was “No difference”. For the same molecule, in [5], the “NF-kB (%)-LLC” value came to 42.89%. The p-Akt/p-mTOR entry in the test on p-Akt/p-mTOR is given as “Decrease”. Also, the “G-CSF (%)” value with G-CSF is 6.939%.

For the molecule `CCN(CC)CCCC(C)Nc1ccnc2cc(Cl)ccc12` (stereo not drawn) [chloroquine], the “higher levels of surface MHC class II in CMTM4 KO cells” value with MHC II [6] was “abolished”.

For “Lobophorin F [C54H78N2O17, Lobophorin F]”, the Glycolysis entry in the test on glycolysis is listed as “Inhibit”. In addition, in the test on MHC II [3], the “MHC II (%)” value is on record as 360.5%. For the same molecule, in [4] (4T1 reporter cells), the “NF-kB (%)-4T1” value came to 40.07%. The “IL-6 (%)” value in the test on IL-6 is given as −12.2043%. Also, the CMTM4 entry on CMTM4 [2] is recorded as “Decrease”. In test [5] (LLC reporter cells), the “NF-kB (%)-LLC” value is 37.64%. In addition, the p-Akt/p-mTOR result in the test with p-Akt/p-mTOR is listed as “Decrease”. For the same molecule, the “G-CSF (%)” value with G-CSF (EGF-mediated secretion) is recorded as 1.147%.

As to “methyl-beta-cyclodextrin [methyl-beta-cyclodextrin (MβCD)]”, the “EGFR mRNA level” value in the test with EGFR (real-time PCR) is recorded as “increased”. Further, the EGFR protein level entry with EGFR (western blot) was “increased”.

B1: CMTM6 (in HCC827-CT cells) (other, human, UniProt Q9NX76 1-183, looked up)
chain: MENGAVYSPTTEEDPGPARGPRSGLAAYFFMGRLPLLRRVLKGLQLLLSLLAFICEEVVSQCTLCGGLYFFEFVSCSAFLLSLLILIVYCTPFYERVDTTKVKSSDFYITLGTGCVFLLASIIFVSTHDRTSAEIAAIVFGFIASFMFLLDFITMLYEKRQESQLRKPENTTRAEALTEPLNA
Consider B1, for which the binding result in test [7] is on record as “no binding”.
